Measured values: patent publication US20100256379A1, “ANTI-VIRAL AGENT CONTAINING HETEROCYCLIC AROMATIC COMPOUND AS ACTIVE INGREDIENT” (Kagoshima University, priority 2007, published 2010)
Read-outs that look alike come from different tables or passages of the source. Marks after values point to notes of the source that are not given here.

Experiments:
[1] = system: Bovine viral diarrhea virus (BVDV) Nose strain; assay: Anti-BVDV activity: inhibition of viral replication in BVDV-infected MDBK cells (LDH in culture supernatant); format: cell-based; conditions: for EC50: Bovine viral diarrhea virus isolates and strains, 72 h, read-out: EC50 (50% effective concentration, 50% inhibition of viral replication); for Selectivity index (CC50/EC50): CC50 in uninfected MDBK cells / EC50 against BVDV; for anti-BVDV effects (in words): summary statements on the tables
From the text: The antiviral activity of the compound according to the present invention can be evaluated by a method that involves infecting cells with a virus, adding the compound according to the present invention to medium before, after, or simultaneously with infection, and then measuring the percent inhibition of viral replication. Specifically, such percent inhibition of viral replication can be evaluated by measuring the activity of lactate dehydrogenase (LDH) in the culture supernatant of the virus-infected cells using an LDH cytotoxicity detection kit (Takara Biochemicals), for example. LDH is an enzyme that exists in the cytoplasm and is generally almost never released extracellularly because of the presence of cell membrane. Meanwhile, when cells are infected with a virus and then the virus replicated within the cells, infected cells die. As a result of viral infection, cell membrane is disrupted and then LDH is released into the culture supernatant. […] That is, the degree of cell disruption due to viral replication and the LDH level in the culture supernatant show extremely good positive correlation. Therefore, the antiviral activity (inhibition of viral replication) of the compound according to the present invention can be measured via quantitative determination of LDH in the culture supernatant.
Furthermore, the selectivity index (CC50/EC50) is calculated. The higher the selectivity index, the higher the effects of inhibiting viral replication alone without damaging cells. Therefore, the antiviral activity of the compound according to the present invention can be evaluated using the selectivity index as an index. Also, the antiviral activity of the compound according to the present invention can be evaluated by assay (e.g., Western blot analysis, ELISA, or flow cytometry) for measuring the viral antigen level in virus-infected cells cultured in medium containing the compound according to the present invention or assay (e.g., Northern blot analysis or quantitative RT-PCR) for measuring the virus gene (RNA) level in virus-infected cells.
1) Cell: Madin-Darby bovine kidney cell (hereinafter, referred to as “MDBK cell”);
2) Virus: Bovine viral diarrhea virus (hereinafter, referred to as “BVDV”) Nose strain;
MDBK cells (2×10^5 cells/ml) were infected with BVDV at an MOI of 0.01 (multiplicity of infection, MOI=0.01). Next, a solution containing BVDV-infected cells was dispensed into a 96-well flat bottom microtiter plate at 100 μl per well, simultaneously with the addition of a compound subjected to 5-fold serial dilution, followed by 3 days of culture at 37° C. (5% CO2).
After 3 days of culture, 50 μl of the cultured supernatant was collected and then transferred to another microtiter plate and then 50 μl of the reaction solution of an LDH cytotoxicity detection kit was added. After 30 minutes of culture at room temperature, the microtiter plate was applied to a microplate reader (BioRad Laboratories) and then absorbance was measured at 490 nm/690 nm.
The percent inhibition (%) of viral replication was calculated by the following formula based on the thus obtained absorbance:
100−[(ODT)V−(ODC)M]/[(ODC)V−(ODC)M]×100(%)

[2] = system: Madin-Darby bovine kidney cell (MDBK cell); assay: Cytotoxicity: inhibition of growth of uninfected MDBK cells (TetraColor One MTT); format: cell-based
Experimental: (§1) Also, after addition of the compound according to the present invention to medium containing cells not infected with any virus, the percent inhibition of cell growth of the compound according to the present invention is measured. For example, with the use of a reagent for viable cell measurement, such as a water soluble MTT solution TetraColor One™ (Seikagaku Corporation), the percent inhibition of cell growth can be measured.
(§2) At the same time, for measurement of toxicity of each compound, the compound was added to a microtiter plate containing MDBK cells not infected with the virus as described above, followed by 3 days of culture. After 3 days of culture, TetraColor One™ was added to a microtiter plate at 10 μl per well. After 1 hour of incubation at 37° C., the microtiter plate was applied to a microplate reader and then absorbance was measured at 450 nm/690 nm.
(§3) The percent inhibition (%) of cell growth was calculated by the following formula based on the thus obtained absorbance: […]

[3] = as above; format: cell-based, bovine; conditions: bovine
Experimental: as §1, §2, §3

[4] = read-out: CC50 (50% cytotoxicity concentration, 50% inhibition of cell growth), uninfected MDBK cells, 3 days of culture, MTT readout, mean of at least two experiments
[5] = BVDV-infected MDBK cells, MOI 0.01, 3 days of culture, LDH readout, mean of at least two experiments

| Molecule | EC50 [1, 5] [µM] | Selectivity index (CC50/EC50) [1] | CC50 at 3 days [3] [µM] | CC50 ([2]; bovine, 3 days) [µM] | anti-BVDV effects (in words) [1] | other results |
| --- | --- | --- | --- | --- | --- | --- |
| c1ccc2c(c1)oc1ccccc12 [Dibenzofuran, reference compound] | – | – | – | – | – | EC50 ([1]; MDBK): > 100 µM; CC50 [2, 4]: > 100 µM |
| Cc1cccc2c3cnccc3n(C)c12 [Compound 13] | 0.3 | 36.7 | 11 | – | – | – |
| Cc1cccc2[nH]c3ccncc3c12 [Compound 9] | 1.2 | 13.3 | – | 16 | – | – |
| Cc1nccc2c1c1ccccc1n2C [Compound 10] | 0.2 | 26.0 | 5.2 | – | – | – |
| Cc1ccc2[nH]c3ccncc3c2c1 [Compound 8] | 3 | 4 | – | 12 | – | – |
| Cn1ccc2nc3ccccc3c-2c1 [Compound 2] | 4.3 | 15.1 | – | 65 | – | – |
| Cc1cc2[nH]c3ccccc3c2cn1 [Compound 3] | 2.2 | 31.8 | – | 70 | – | – |
| Cc1ccc2c(c1)[nH]c1ccncc12 [Compound 7] | 1.1 | 21.8 | – | 24 | – | – |
| NC(=O)c1ncn([C@@H]2O[C@H](CO)[C@@H](O)[C@H]2O)n1 [Ribavirin, 1-β-D-ribofuranousyl-1,2,4-triazole-3-carboxamide, reference compound] | 3.9 | – | 15.1 | – | selective anti-BVDV effects | – |
| Cc1ccc2c3cnccc3n(C)c2c1 [Compound 14] | 0.3 | 133.3 | 40 | – | – | – |
| Cc1cncc2c3ccccc3n(C)c12 [Compound 12] | 0.043 | 223.2 | 9.6 | – | strongest activity and high selectivity | – |
| c1ccc2c(c1)[nH]c1ccncc12 [γ-Carboline] | 2.1 | 19.5 | 41 | – | selective anti-BVDV effects | – |
| Cc1cccc2c1[nH]c1ccncc12 [Compound 6] | 1.7 | 14.1 | – | 24 | – | – |
| c1ccc2c(c1)Cc1ccccc1-2 [Fluorene, reference compound] | > 100 | – | – | > 100 | – | – |
| c1ccc2c(c1)[nH]c1cnccc12 [β-Carboline] | – | 10.2 | – | – | selective anti-BVDV effects | EC50 ([1]; MDBK): 8.5 µM; CC50 at 3 days ([3]; uninfected MDBK cells, 3 days of culture, MTT readout, mean of at least two experiments): 87 µM |
| c1ccc2c(c1)[nH]c1cccnc12 [δ-Carboline, reference compound] | > 100 | – | – | > 100 | lower than those of β-carboline and γ-carboline | – |
| c1ccc2c(c1)[nH]c1ccccc12 [Carbazole, reference compound] | – | – | – | – | – | EC50 ([1]; MDBK): > 100 µM; CC50 [2, 4]: > 100 µM |
| Cc1cc2c(cn1)c1ccccc1n2C [Compound 11] | 0.062 | 338.7 | 21 | – | activity equivalent to that of compound 12 and the highest selectivity | – |
| Cc1ccc2c(c1)c1cnccc1n2C [Compound 15] | 0.35 | 22.0 | 7.7 | – | – | – |
| Cc1cccc2c1c1cnccc1n2C [Compound 16] | 0.29 | 22.1 | 6.4 | – | – | – |
| Cc1cncc2c1[nH]c1ccccc12 [Compound 4] | 0.55 | 38.2 | – | 21 | – | – |
| Interferon-α | – | – | – | – | – | EC50 (50% effective concentration, 50% inhibition of viral replication) ([1]; interferon-α, BVDV-infected MDBK cells, MOI 0.01, 3 days, LDH readout): 5.5* IU/well |
| c1ccc2c(c1)[nH]c1ncccc12 [α-Carboline, reference compound] | 91 | >1.1 | – | > 100 | lower than those of β-carboline and γ-carboline | – |
| Cc1nccc2[nH]c3ccccc3c12 [Compound 1] | 0.58 | 16.7 | – | 9.7 | – | – |
| Cn1c2ccccc2c2cnccc21 [Compound 5] | 0.26 | 111.5 | – | 29 | strongest activity and the highest selectivity | – |
